Experiments:
[1] = test system: carrageenin-induced edema; test: Carrageenin-induced edema (antiinflammatory) assay, rat hind paw; format: in vivo, rat (Long Evans strain, male); details: for inhibition in vivo at 200 mg/kg: 200 mg/kg oral; for ED50: 3 h, oral, dose which reduced edema formation by about 25% or more vs. mean control response in 50% of the animals
Procedure: The procedure employed is a modification of the method of Winter et al., Proc. Soc. Exptl. Biol. Med., 111:544 (1962). The device used for measurement of the paw volume is an adaptation of the water displacement procedure described by Adamkiewicz et al., Can. J. Biochem. Physiol., 33:332 (1955). Test compounds were administered orally, one hour prior to the intraplanter injection of 0.05 mL. of sterile 1.0% solution of carrageenin into the left hind paw of male rats (Long Evans strain) weighing between about 130-200 g. At peak swelling time (3 hrs.) the volume of edema was calculated by differential paw volumes.
Selected compounds of the invention were further tested to determine their ED50 values. The ED50 value is defined as that dose which reduced edema formation by about 25% or more compared with the mean control response (parallel run) in 50% of the animals. Typical results of these tests appear in Table II.

phenylquinone writhing = test: Phenylquinone writhing test (analgesic assay); format: in vivo, mouse (Carworth CF1, male); details: for Phenylquinone Writhing Assay (% Control), percent analgesia, 15 min.: 15 min. after administration; for Phenylquinone Writhing Assay (% Control), percent analgesia, 30 min.: 30 min. after administration; for Phenylquinone Writhing Assay (% Control), percent analgesia, 60 min.: 60 min. after administration
Procedure: Phenylquinone writhing test was employed to evaluate analgesic activity for selected compounds for the present invention according to the following procedure:
Phenylquinone (phenyl-p-benzoquinone, No. 7104, Eastman Organic Chemicals) is made up as a 0.02% aqueous solution and 5% ethyl alcohol. Phenylquinone solutions are made up fresh twice daily. Standard reference agents and the test compounds are dissolved or suspended in a 0.25% methylcellulose solution. A control group consisting of 10 mice (Carworth CF1 male mice) are administered the 0.02% phenylquinone solution at a dose of 0.25 mL./mouse. The mice are housed individually and observed closely for 10 min. for exhibition of writhing. The onset of writhing occurs within 3 min. and 100% of the mice must writh within 10 min. Test compounds are administered orally to groups of 10 mice. The volume given is 0.01 mL. per gram of body weight. Activity can be studied at 15, 30, 60 and 120 min. after oral administration. After the designated time interval of a dose group has elapsed, the mice are challenged with phenylquinone intraperitoneally. Complete blocking of the writhing syndrome for the 10-min. observation period in any one mouse is considered a positive analgesic response for that mouse. Conversely, if any mouse wriths definitely once, it is considered not to be protected. The number of mice not writhing in a group multiplied by 10 equals percent analgesia for that dose at the time interval.

[2] = Rattus norvegicus, 1 hour before carrageenin, edema at peak swelling time (3 hrs.), read-out: % Reduction of Edema

c1ccc(-c2cnn3cnnc3n2)cc1 [Example 13, 1,2,4-triazolo[4,3-b]-1,2,4-triazine, 7-phenyl]
inhibition in vivo at 175 mg/kg ([1]; Rattus norvegicus, 175 mg/kg oral, 1 hour before carrageenin, edema at peak swelling time (3 hrs.), read-out: % Reduction of Edema): 82% | Phenylquinone Writhing Assay (% Control), percent analgesia, 15 min. (phenylquinone writhing; 50 mg/kg oral): 20% | Phenylquinone Writhing Assay (% Control), percent analgesia, 30 min. (phenylquinone writhing; 50 mg/kg oral): 20%

Cc1nc2nnc(C)n2nc1C [Example 25, 1,2,4-triazolo[4,3-b]-1,2,4-triazine, 3,6,7-trimethyl]
inhibition in vivo at 200 mg/kg [1, 2]: 49%

CC(C)c1nnc2nc(-c3ccccc3)c(-c3ccccc3)nn12 [Example 23, 1,2,4-triazolo[4,3-b]-1,2,4-triazine, 3-isopropyl-5,6-diphenyl]
ED50 ([1]; Rattus norvegicus): 30 mg/kg | inhibition in vivo at 200 mg/kg [1, 2]: 37%

Cc1nnc2nc(-c3ccccc3)c(-c3ccccc3)nn12 [Example 9, 1,2,4-triazolo[4,3-b]-1,2,4-triazine, 3-methyl-6,7-diphenyl]
inhibition in vivo at 200 mg/kg [1, 2]: 35%

FC(F)(F)c1nnc2nc(-c3ccccc3)cnn12 [Example 15, 1,2,4-triazolo[4,3-b]-1,2,4-triazine, 3-trifluoromethyl-7-phenyl]
inhibition in vivo at 200 mg/kg [1, 2]: 30%

Cc1nnc2nc(-c3cccc(Cl)c3)cnn12 [Example 1, 1,2,4-triazolo[4,3-b]-1,2,4-triazine, 3-methyl-7-(3-chlorophenyl)]
ED50 ([1]; Rattus norvegicus): 30 mg/kg | inhibition in vivo at 200 mg/kg [1, 2]: 39%

Clc1cccc(-c2cnn3cnnc3n2)c1 [Example 28, 1,2,4-triazolo[4,3-b]-1,2,4-triazine, 7-(3'-chlorophenyl)]
inhibition in vivo at 200 mg/kg [1, 2]: 21%

Cc1nnc2nc(-c3ccccc3Cl)cnn12 [Example 26, 1,2,4-triazolo[4,3-b]-1,2,4-triazine, 3-methyl-7-(2'-chlorophenyl)]
inhibition in vivo at 200 mg/kg [1, 2]: 56%

c1ccc(-c2nc3nncn3nc2-c2ccccc2)cc1 [Example 22, 1,2,4-triazolo[4,3-b]-1,2,4-triazine, 6,7-diphenyl]
inhibition in vivo at 200 mg/kg [1, 2]: 32%

CCc1nnc2nc(-c3ccccc3)cnn12 [Example 5, 1,2,4-triazolo[4,3-b]-1,2,4-triazine, 3-ethyl-7-phenyl]
ED50 ([1]; Rattus norvegicus): 100 mg/kg | inhibition in vivo at 200 mg/kg [1, 2]: 40% | Phenylquinone Writhing Assay (% Control), percent analgesia, 15 min. (phenylquinone writhing; 100 mg/kg oral): 30% | Phenylquinone Writhing Assay (% Control), percent analgesia, 30 min. (phenylquinone writhing; 100 mg/kg oral): 30% | Phenylquinone Writhing Assay (% Control), percent analgesia, 60 min. (phenylquinone writhing; 100 mg/kg oral): 70%

CC(C)c1nnc2nc(-c3ccc(Cl)c(Cl)c3)cnn12 [Example 6, 1,2,4-triazolo[4,3-b]-1,2,4-triazine, 3-isopropyl-7-(3',4'-dichlorophenyl)]
inhibition in vivo at 200 mg/kg [1, 2]: 33%

Oc1nnc2nc(-c3ccccc3)cnn12 [Example 3, 1,2,4-triazolo[4,3-b]-1,2,4-triazine, 3-hydroxy-7-phenyl]
inhibition in vivo at 200 mg/kg [1, 2]: 22%

Clc1ccc(-c2cnn3cnnc3n2)cc1 [Example 10, 1,2,4-triazolo[4,3-b]-1,2,4-triazine, 7-(4'-chlorophenyl)]
ED50 ([1]; Rattus norvegicus): 10 mg/kg | inhibition in vivo at 200 mg/kg [1, 2]: 27%

Clc1ccccc1-c1cnn2cnnc2n1 [Example 36, 1,2,4-triazolo[4,3-b]-1,2,4-triazine, 7-(2'-chlorophenyl)]
inhibition in vivo at 200 mg/kg [1, 2]: 65%

CC(C)c1nnc2nc(-c3ccccc3)cnn12 [Example 4, 1,2,4-triazolo[4,3-b]-1,2,4-triazine, 3-isopropyl-7-phenyl]
inhibition in vivo at 200 mg/kg [1, 2]: 18% | Phenylquinone Writhing Assay (% Control), percent analgesia, 15 min. (phenylquinone writhing; 100 mg/kg oral): 10% | Phenylquinone Writhing Assay (% Control), percent analgesia, 30 min. (phenylquinone writhing; 100 mg/kg oral): 20% | Phenylquinone Writhing Assay (% Control), percent analgesia, 60 min. (phenylquinone writhing; 100 mg/kg oral): 20%

COCc1nnc2nc(-c3ccc(C)cc3)cnn12 [Example 8, 1,2,4-triazolo[4,3-b]-1,2,4-triazine, 3-methoxymethyl-7-(4'-methylphenyl)]
% Reduction of Edema ([1]; 100 mg/kg oral, 1 hour before carrageenin, edema at peak swelling time (3 hrs.)): 16%

Clc1ccc(-c2cnn3cnnc3n2)cc1Cl [Example 7, 1,2,4-triazolo[4,3-b]-1,2,4-triazine, 7-(3',4'-dichlorophenyl)]
ED50 ([1]; Rattus norvegicus): 1 mg/kg | inhibition in vivo at 200 mg/kg [1, 2]: 36% | Phenylquinone Writhing Assay (% Control), percent analgesia, 15 min. (phenylquinone writhing; 100 mg/kg oral): 30% | Phenylquinone Writhing Assay (% Control), percent analgesia, 30 min. (phenylquinone writhing; 100 mg/kg oral): 50% | Phenylquinone Writhing Assay (% Control), percent analgesia, 60 min. (phenylquinone writhing; 100 mg/kg oral): 30%

COCc1nnc2nc(-c3ccccc3)cnn12 [Example 2, 1,2,4-triazolo[4,3-b]-1,2,4-triazine, 3-methoxymethyl-7-phenyl]
inhibition in vivo at 200 mg/kg [1, 2]: 26%

Cc1nnc2nc(-c3ccccc3)cnn12 [Example 12, 1,2,4-triazolo[4,3-b]-1,2,4-triazine, 3-methyl-7-phenyl]
inhibition in vivo at 200 mg/kg [1, 2]: 70%

Reference: US4405619A, “Antiinflammatory substituted-1,2,4-triazolo[4,3-b]-1,2,4-triazines” (Diamond Shamrock Corporation, priority 1981, dated 1983)
